One assay relates to GC3 /Cl Cells. Briefly: Potentiation of cytotoxicity of vincristine and vinblastine. The following applies: Homo sapiens, 168 h, read-out: IC50 of VCR alone. The class given is cell-based. On the procedure:
(§1) Tumor cells were treated with graded concentrations of VCR and VLB in the absence or presence of nontoxic concentrations of the products of Examples 1, 3, 4 and 18. The plates were then transferred to a CO2 incubator and, after further incubation for 7 days at 37° C., colonies were enumerated as described in Example 23.
(§2) ^a IC50 concentration of modulator

A further assay concerns KB Ch^R -8-5 Cells. Described as above. Format: cell-based. The following applies: Homo sapiens, 168 h, read-out: IC50 of VCR alone. As for the experimental part:
as §1, §2

The subject of a further assay is GC3 /CL. The assay is described as follows: Resistance of cell line to VCR. Format: cell-based, human. The conditions noted are these: relative to KB-3-1. As for the experimental part:
(§3) A cloned line of human colon adenocarcinoma, GC3 /Cl^31, which is intrinsically resistant to VCR (≈4-fold relative to KB-3-1), was routinely grown at 37° C. in antibiotic-free RPMI-1640 medium supplemented with 2 mM glutamine and 10% FBS (Hyclone Laboratories, Inc., Logan, Utah) in a humidified atmosphere of 5% CO2 and 95% air. Human epidermoid carcinoma KB-3-1 cells and a colchicine selected MDR variant, KBCh®-8-5, were obtained which was cross-resistant to VCR (45-fold) and VLB (6.3-fold); it was grown in monolayer culture at 37° C. in DMEM with 10% FBS and L-glutamine in a humidified atmosphere of 10% CO2 in air. The resistance of the KBCh®-8-5 cells was maintained by culturing them with colchicine (10 ng/ml).

The test system of the next assay is KBCh®-8-5. Briefly: Cross-resistance of cell line to VCR and VLB. The class given is cell-based, human. The following applies: KBCh®-8-5, colchicine selected MDR variant. On the procedure: as §3
Another assay concerns MDR GC3 /Cl cells. The following applies: compared with verapamil; cited from earlier work.
Another assay relates to KBCh®-8-5 cells. The following applies: compared with verapamil; cited from earlier work.

The text below walks through data of patent US5371081A, “N-substituted phenoxazines for treating multidrug resistant cancer cells” (St. Jude Children's Research Hospital, priority 1993, dated 1994).

In the case of `CC[C@]1(O)C[C@H]2CN(CCc3c([nH]c4ccccc34)[C@@](C(=O)OC)(c3cc4c(cc3OC)N(C=O)[C@H]3[C@@](O)(C(=O)OC)[C@H](OC(C)=O)[C@]5(CC)C=CCN6CC[C@]43[C@@H]65)C2)C1` [VCR], the IC50 was determined as 0.027 µM in the assay with GC3 /Cl Cells and 0.032 µM in the assay with KB Ch^R -8-5 Cells. Besides, in the assay with GC3 /CL, the “resistance to VCR” value was “≈ 4 fold”. Further, the “cross-resistance to VCR” value in the assay on KBCh®-8-5 is listed as 45 fold.

`c1ccc2c(c1)Nc1ccccc1O2` [phenoxazine]: the “potentiation of uptake of VCR and VLB” value with MDR GC3 /Cl cells and in the assay with KBCh®-8-5 cells was “to a greater extent than verapamil” throughout.

Usually IC50 stands for the concentration that inhibits the measured activity by half.
